Measured values from ChEMBL document CHEMBL1201862, “PubChem BioAssay data set” (2004).
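Assay format: 96-well plates, 48-hour exposure. GI50 = concentration required for 50% inhibition of growth.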 Calls of active or inactive are those of the source. Cut-off read from the data, not from the text of the source: active = GI50 up to about 1.1 µM and inactive = higher.

Legend:
Experiment in all cases: NCI-60 cell line screen, 48 h
TK-10 = tested on: TK-10
SNB-75 = tested on: SNB-75
IGROV-1 = tested on: IGROV-1
SF-539 = tested on: SF-539
PC-3 = tested on: PC-3
MOLT-4 = tested on: MOLT-4
Hs-578T = tested on: Hs-578T
SK-MEL-2 = tested on: SK-MEL-2
A549 = tested on: A549
HL-60 = tested on: HL-60
UACC-62 = tested on: UACC-62
OVCAR-3 = tested on: OVCAR-3
SR = tested on: SR
NCI-H460 = tested on: NCI-H460
786-0 = tested on: 786-0
NCI/ADR-RES = tested on: NCI/ADR-RES
HCC 2998 = tested on: HCC 2998
HCT-15 = tested on: HCT-15
SF-268 = tested on: SF-268
BT-549 = tested on: BT-549

Measured: GI50

O=C1NC2C(=CC(O)C(O)C2O)c2cc3c(cc21)OCO3 (configuration not stated)
active: TK-10 0.418 µM | SNB-75 0.568 µM | IGROV-1 0.494 µM | SF-539 0.458 µM | PC-3 0.141 µM | MOLT-4 0.109 µM | Hs-578T 0.0794 µM | SK-MEL-2 0.351 µM | A549 0.52 µM | HL-60 0.108 µM | UACC-62 0.421 µM | OVCAR-3 0.372 µM | SR 0.109 µM | NCI-H460 0.194 µM | 786-0 0.245 µM | NCI/ADR-RES 0.621 µM | HCC 2998 0.415 µM | SF-268 0.171 µM
0.52 µM: HCT-15

CCN(CC)CCCNc1[nH]c2ccccc2c2nc3ccc(OC)cc3c1-2
1.21 µM: HCT-15
inactive: TK-10 2.31 µM | SNB-75 1.77 µM | IGROV-1 1.71 µM | SF-539 2.16 µM | PC-3 1.22 µM | Hs-578T 1.78 µM | SK-MEL-2 1.73 µM | A549 1.43 µM | HL-60 1.21 µM | UACC-62 4.68 µM | OVCAR-3 3.31 µM | 786-0 1.16 µM | NCI/ADR-RES 1.27 µM | HCC 2998 1.12 µM | SF-268 1.77 µM
active: MOLT-4 0.279 µM | SR 0.274 µM | NCI-H460 0.367 µM

COc1cc(C=C2C(C)=NN(c3cccc(Cl)c3)C23C(Cl)C(=O)N3c2nc3ccccc3s2)ccc1O (configuration not stated)
20.7 µM: HCT-15
active: MOLT-4 0.461 µM | HL-60 0.546 µM | SR 0.111 µM
inactive: TK-10 30.7 µM | IGROV-1 15.8 µM | SF-539 35.4 µM | PC-3 14.9 µM | Hs-578T 7.36 µM | SK-MEL-2 17.5 µM | OVCAR-3 26.4 µM | NCI-H460 25.4 µM | 786-0 19.8 µM | NCI/ADR-RES 38.8 µM | HCC 2998 2.56 µM | SF-268 3.09 µM

Cc1ccc(/C=N/Nc2nc3ccccc3s2)s1
inactive: TK-10 69.2 µM | SNB-75 46.3 µM | IGROV-1 18.8 µM | SF-539 91.8 µM | PC-3 27.9 µM | MOLT-4 > 100 µM | Hs-578T 66.1 µM | SK-MEL-2 > 100 µM | A549 > 100 µM | HL-60 > 100 µM | UACC-62 74.6 µM | OVCAR-3 34.9 µM | 786-0 66.5 µM | NCI/ADR-RES > 100 µM | HCC 2998 55.6 µM | SF-268 49.8 µM
19.4 µM: HCT-15

CC1=C(c2ccc(C)cc2)NC(=S)C(C)C(c2ccc(C)cc2)=N1 (configuration not stated)
inactive: TK-10 > 100 µM | SNB-75 > 100 µM | IGROV-1 > 100 µM | SF-539 92.5 µM | MOLT-4 32.8 µM | A549 81.5 µM | BT-549 72.3 µM | HL-60 30.3 µM | UACC-62 89.7 µM | SR > 10 µM | NCI-H460 > 100 µM | 786-0 > 100 µM | NCI/ADR-RES > 100 µM | HCC 2998 89.3 µM | SF-268 > 100 µM
82.8 µM: HCT-15

CC1(C)CC(C#Cc2ccccc2)CC(C)(C)N1O
14.9 µM: HCT-15
inactive: TK-10 20.4 µM | SNB-75 16.9 µM | IGROV-1 29.9 µM | SF-539 20.6 µM | PC-3 11.6 µM | MOLT-4 46 µM | Hs-578T 19 µM | SK-MEL-2 20.7 µM | A549 22.5 µM | HL-60 14.8 µM | UACC-62 17.2 µM | OVCAR-3 15.9 µM | SR 52.7 µM | NCI-H460 18.3 µM | 786-0 22.2 µM | NCI/ADR-RES 23.9 µM | HCC 2998 16.3 µM | SF-268 20.7 µM

CCOC(=O)C1C2CCC1CC(=NNc1ccc([N+](=O)[O-])cc1[N+](=O)[O-])C2 (configuration not stated)
inactive: TK-10 > 50 µM | SNB-75 18 µM | IGROV-1 > 50 µM | SF-539 > 50 µM | PC-3 39.6 µM | MOLT-4 31.4 µM | SK-MEL-2 > 50 µM | A549 37.6 µM | BT-549 > 50 µM | UACC-62 > 50 µM | OVCAR-3 > 50 µM | SR 18.6 µM | NCI-H460 > 50 µM | 786-0 > 50 µM | NCI/ADR-RES 4.38 µM | HCC 2998 45.1 µM | SF-268 > 50 µM
> 50 µM: HCT-15

Cc1cc2[n-][n+]3ncc(-c4ccccc4)n3c2cc1[N+](=O)[O-]
inactive: TK-10 > 100 µM | SNB-75 > 100 µM | IGROV-1 > 100 µM | SF-539 > 100 µM | PC-3 > 100 µM | MOLT-4 > 100 µM | Hs-578T > 100 µM | SK-MEL-2 > 100 µM | A549 > 100 µM | BT-549 > 100 µM | HL-60 > 100 µM | UACC-62 > 100 µM | OVCAR-3 > 100 µM | SR > 100 µM | NCI-H460 > 100 µM | 786-0 > 100 µM
> 100 µM: HCT-15

COCCCNC(=O)C1=C(C)NC(C)=C(C(=O)NCCCOC)C1
inactive: TK-10 > 100 µM | SNB-75 21 µM | IGROV-1 11.3 µM | SF-539 > 100 µM | PC-3 > 100 µM | MOLT-4 > 100 µM | Hs-578T 86.5 µM | SK-MEL-2 > 100 µM | A549 > 100 µM | HL-60 > 100 µM | UACC-62 > 100 µM | OVCAR-3 > 100 µM | SR > 100 µM | NCI-H460 > 100 µM | 786-0 > 100 µM | NCI/ADR-RES > 100 µM | HCC 2998 > 100 µM | SF-268 > 100 µM

O=C(c1c(F)c(F)c(F)c(F)c1F)n1c(=S)n(C(=O)c2c(F)c(F)c(F)c(F)c2F)c2ccccc21
> 100 µM: HCT-15
inactive: TK-10 > 100 µM | SNB-75 > 100 µM | IGROV-1 > 100 µM | SF-539 > 100 µM | PC-3 64 µM | MOLT-4 20 µM | Hs-578T > 100 µM | SK-MEL-2 > 100 µM | BT-549 > 100 µM | HL-60 12.9 µM | UACC-62 24.7 µM | SR 39.9 µM | NCI-H460 > 100 µM | 786-0 > 100 µM | HCC 2998 > 100 µM | SF-268 39.9 µM

Cc1nc2ccccc2c(-n2cccn2)c1CCn1cccn1
> 100 µM: HCT-15
inactive: TK-10 > 100 µM | IGROV-1 85.9 µM | SF-539 > 100 µM | PC-3 > 100 µM | MOLT-4 39.4 µM | Hs-578T > 100 µM | SK-MEL-2 > 100 µM | A549 > 100 µM | HL-60 > 100 µM | UACC-62 80.2 µM | OVCAR-3 40.4 µM | SR 71.4 µM | NCI-H460 > 100 µM | 786-0 > 100 µM | NCI/ADR-RES > 100 µM | HCC 2998 > 100 µM | SF-268 > 100 µM

NCCSc1nc2ccccc2c(=O)n1-c1ccccc1
43.8 µM: HCT-15
inactive: TK-10 45.5 µM | SNB-75 33.9 µM | IGROV-1 44.7 µM | SF-539 32.7 µM | PC-3 27.9 µM | MOLT-4 > 10 µM | SK-MEL-2 67 µM | A549 43.7 µM | BT-549 27.2 µM | HL-60 32.8 µM | UACC-62 26.4 µM | OVCAR-3 > 100 µM | SR 11.9 µM | 786-0 51.1 µM | NCI/ADR-RES 68.9 µM | HCC 2998 44.3 µM

[N-]=[N+]=C1N=CN=C1c1nc[nH]n1
63 µM: HCT-15
inactive: TK-10 51.2 µM | SNB-75 32.3 µM | IGROV-1 29 µM | SF-539 15.3 µM | PC-3 > 100 µM | MOLT-4 6.27 µM | SK-MEL-2 94.8 µM | A549 > 100 µM | HL-60 5.83 µM | UACC-62 16.6 µM | OVCAR-3 32.2 µM | 786-0 21.9 µM | NCI/ADR-RES 22.1 µM | HCC 2998 63 µM

Nc1ccn(C2(CO)C=C(CO)C(O)C2O)c(=O)n1 (configuration not stated)
> 25.8 µM: HCT-15
inactive: TK-10 > 25.8 µM | SNB-75 > 25.8 µM | IGROV-1 > 25.8 µM | SF-539 > 25.8 µM | MOLT-4 > 25.8 µM | SK-MEL-2 > 25.8 µM | A549 > 25.8 µM | HL-60 > 25.8 µM | UACC-62 > 25.8 µM | OVCAR-3 > 25.8 µM | SR > 25.8 µM | NCI-H460 > 25.8 µM | 786-0 > 25.8 µM | HCC 2998 > 25.8 µM | SF-268 > 25.8 µM

COc1cc(O)c2c(c1)C(=O)C1=C(C2=O)C(O)C[C@@](C)(O)C1 (some centres not stated)
inactive: TK-10 1.98 µM | SNB-75 3.41 µM | IGROV-1 1.79 µM | SF-539 2.57 µM | MOLT-4 2.22 µM | SK-MEL-2 1.63 µM | A549 2.34 µM | UACC-62 1.37 µM | SR 2.4 µM | NCI-H460 1.92 µM | 786-0 3.08 µM | HCC 2998 1.47 µM | SF-268 2.01 µM
0.358 µM: HCT-15
active: HL-60 0.451 µM | OVCAR-3 0.822 µM

OC1CN=C2c3ccccc3C(O)(c3ccc(Cl)cc3)N2C1 (configuration not stated)
inactive: TK-10 20.2 µM | SNB-75 19.8 µM | IGROV-1 87.9 µM | SF-539 32.2 µM | PC-3 41.9 µM | MOLT-4 31 µM | Hs-578T 88.5 µM | SK-MEL-2 > 100 µM | A549 > 100 µM | HL-60 44.4 µM | UACC-62 45.4 µM | OVCAR-3 > 100 µM | SR 38.1 µM | NCI-H460 43.9 µM | 786-0 55 µM | NCI/ADR-RES > 100 µM | HCC 2998 17.1 µM | SF-268 32 µM

Clc1ccc(OCc2nnc3sc(SSc4nn5c(COc6ccc(Cl)cc6)nnc5s4)nn23)cc1
inactive: SNB-75 > 100 µM | IGROV-1 > 100 µM | SF-539 > 100 µM | Hs-578T > 100 µM | SK-MEL-2 > 100 µM | A549 > 100 µM | HL-60 > 100 µM | NCI-H460 > 100 µM | 786-0 > 100 µM | NCI/ADR-RES > 100 µM | SF-268 > 100 µM
